Measured values taken from patent US12594276B2, “Inhibitors of human immunodeficiency virus replication” (ViiV Healthcare UK (No.5) Limited, priority 2024, dated 2026).
Like-named read-outs stand apart in the source and are kept apart here.

Tests used:
[1] = tested on: recombinant NL4-3 virus (nef section replaced with Renilla luciferase gene) in MT-2 cells; experiment: HIV cell culture assay (antiviral activity, luciferase readout); assay type: cell-based; settings: Renilla, NL43, MT-2 cells infected for 4-5 days with recombinant NL4-3 Renilla luciferase virus
Procedure, shortened: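 Compound activity was measured as reduction of luciferase in MT-2 cells infected for 4-5 days with serially diluted compound present. EC50 values were calculated with the median effect equation.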

[2] = Compound cytotoxicity, XTT-based colorimetric assay; assay type: cell-based; settings: human
Procedure, shortened: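 Follows the antiviral assay procedure, but with uninfected MT2 cells. On day 4, cell viability is measured by XTT-based colorimetry, giving CC50 values.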

[3] = uninfected MT2 cells, day 4, XTT, read-out: CC50

Structure (SMILES)	EC50 [1]	CC50 at 4 days [2]	CC50 at 4 days [2, 3]
COCCNc1cc(C2CCC(F)(F)CC2)nc2nc([C@H](Cc3cc(F)cc(F)c3)NC(=O)Cn3nc(C(F)F)c4c3C(F)(F)[C@@H]3C[C@H]43)n(-c3ccc(Cl)c4c(NS(C)(=O)=O)nn(CCN5C[C@H]6C[C@@H](C5)O6)c34)c(=O)c12 (atropisomer, axis not shown; (P)) [Example 419, N-[(1S)-1-[(3P)-3-(4-chloro-3-methanesulfonamido-1-{2-[(1R,5S)-6-oxa-3-azabicyclo[3.1.1]heptan-3-yl]ethyl}-1H-indazol-7-yl)-7-(4,4-difluorocyclohexyl)-5-[(2-methoxyethyl)amino]-4-oxo-3H,4H-pyrido[2,3-d]pyrimidin-2-yl]-2-(3,5-difluorophenyl)ethyl]-2-[(2S,4R)-9-(difluoromethyl)-5,5-difluoro-7,8-diazatricyclo[4.3.0.0^2,^4]nona-1(6),8-dien-7-yl]acetamide]	11 pM	> 20000 pM	
COCCNc1cc(C2CCC(F)(F)CC2)nc2nc([C@H](Cc3cc(F)cc(F)c3)NC(=O)Cn3nc(C(F)F)c4c3C(F)(F)[C@@H]3C[C@H]43)n(-c3ccc(Cl)c4c(NS(C)(=O)=O)nn(CCN5C[C@H]6CC[C@@H](C5)O6)c34)c(=O)c12 (atropisomer, axis not shown; (P)) [Example 420, N-[(1S)-1-[(3P)-3-(4-chloro-3-methanesulfonamido-1-{2-[(1R,5S)-8-oxa-3-azabicyclo[3.2.1]octan-3-yl]ethyl}-1H-indazol-7-yl)-7-(4,4-difluorocyclohexyl)-5-[(2-methoxyethyl)amino]-4-oxo-3H,4H-pyrido[2,3-d]pyrimidin-2-yl]-2-(3,5-difluorophenyl)ethyl]-2-[(2S,4R)-9-(difluoromethyl)-5,5-difluoro-7,8-diazatricyclo[4.3.0.0^2,^4]nona-1(6),8-dien-7-yl]acetamide]	11 pM		> 20000 pM
CC1(C)CN(CCn2nc(NS(C)(=O)=O)c3c(Cl)ccc(-n4c([C@H](Cc5cc(F)cc(F)c5)NC(=O)Cn5nc(C6CC6)c6c5C[C@@H]5C[C@H]65)nc5nc(C6CCC(F)(F)CC6)cc(C(F)F)c5c4=O)c32)CC(C)(C)O1 (atropisomer, axis not shown; (P)) [Example 421, N-[(1S)-1-[(3P)-3-{4-chloro-3-methanesulfonamido-1-[2-(2,2,6,6-tetramethylmorpholin-4-yl)ethyl]-1H-indazol-7-yl}-7-(4,4-difluorocyclohexyl)-5-(difluoromethyl)-4-oxo-3H,4H-pyrido[2,3-d]pyrimidin-2-yl]-2-(3,5-difluorophenyl)ethyl]-2-[(2S,4S)-9-cyclopropyl-7,8-diazatricyclo[4.3.0.0^2,^4]nona-1(6),8-dien-7-yl]acetamide]	12 pM		> 20000 pM
CC1(C)CN(CCn2nc(NS(C)(=O)=O)c3c(Cl)ccc(-n4c([C@H](Cc5cc(F)cc(F)c5)NC(=O)Cn5nc(C6CC6)c6c5C[C@@H]5C[C@H]65)nc5nc(C6CCC(F)(F)CC6)ccc5c4=O)c32)CC(C)(C)O1 (atropisomer, axis not shown; (P)) [Example 424, N-[(1S)-1-[(3P)-3-{4-chloro-3-methanesulfonamido-1-[2-(2,2,6,6-tetramethylmorpholin-4-yl)ethyl]-1H-indazol-7-yl}-7-(4,4-difluorocyclohexyl)-4-oxo-3H,4H-pyrido[2,3-d]pyrimidin-2-yl]-2-(3,5-difluorophenyl)ethyl]-2-[(2S,4S)-9-cyclopropyl-7,8-diazatricyclo[4.3.0.0^2,^4]nona-1(6),8-dien-7-yl]acetamide]	12 pM		> 20000 pM
CCNc1cc(C2CCC(F)(F)CC2)nc2nc([C@H](Cc3cc(F)cc(F)c3)NC(=O)Cn3nc(C(F)F)c4c3C(F)(F)[C@@H]3C[C@H]43)n(-c3ccc(Cl)c4c(NS(C)(=O)=O)nn(CCCOC)c34)c(=O)c12 (atropisomer, axis not shown; (P)) [Example 427, N-[(1S)-1-[(3P)-3-[4-chloro-3-methanesulfonamido-1-(3-methoxypropyl)-1H-indazol-7-yl]-7-(4,4-difluorocyclohexyl)-5-(ethylamino)-4-oxo-3H,4H-pyrido[2,3-d]pyrimidin-2-yl]-2-(3,5-difluorophenyl)ethyl]-2-[(2S,4R)-9-(difluoromethyl)-5,5-difluoro-7,8-diazatricyclo[4.3.0.0^2,4]nona-1(6),8-dien-7-yl]acetamide]	10 pM		> 20000 pM
COCCCn1nc(NS(C)(=O)=O)c2c(Cl)ccc(-n3c([C@H](Cc4cc(F)cc(F)c4)NC(=O)Cn4nc(C(F)F)c5c4C(F)(F)[C@@H]4C[C@H]54)nc4nc(C5CCC(F)(F)CC5)cc(NC[C@@H]5CCCOC5)c4c3=O)c21 (atropisomer, axis not shown; (P)) [Example 428, N-[(1S)-1-[(3P)-3-[4-chloro-3-methanesulfonamido-1-(3-methoxypropyl)-1H-indazol-7-yl]-7-(4,4-difluorocyclohexyl)-5-({[(3S)-oxan-3-yl]methyl}amino)-4-oxo-3H,4H-pyrido[2,3-d]pyrimidin-2-yl]-2-(3,5-difluorophenyl)ethyl]-2-[(2S,4R)-9-(difluoromethyl)-5,5-difluoro-7,8-diazatricyclo[4.3.0.0^2,^4]nona-1(6),8-dien-7-yl]acetamide]	20 pM		> 20000 pM
COCCCn1nc(NS(C)(=O)=O)c2c(Cl)ccc(-n3c([C@H](Cc4cc(F)cc(F)c4)NC(=O)Cn4nc(C(F)F)c5c4C(F)(F)[C@@H]4C[C@H]54)nc4nc(C5CCC(F)(F)CC5)cc(NCCN5CCCC5)c4c3=O)c21 (atropisomer, axis not shown; (P)) [Example 429, N-[(1S)-1-[(3P)-3-[4-chloro-3-methanesulfonamido-1-(3-methoxypropyl)-1H-indazol-7-yl]-7-(4,4-difluorocyclohexyl)-4-oxo-5-{[2-(pyrrolidin-1-yl)ethyl]amino}-3H,4H-pyrido[2,3-d]pyrimidin-2-yl]-2-(3,5-difluorophenyl)ethyl]-2-[(2S,4R)-9-(difluoromethyl)-5,5-difluoro-7,8-diazatricyclo[4.3.0.0^2,^4]nona-1(6),8-dien-7-yl]acetamide]	19 pM		> 20000 pM
COCCCn1nc(NS(C)(=O)=O)c2c(Cl)ccc(-n3c([C@H](Cc4cc(F)cc(F)c4)NC(=O)Cn4nc(C(F)F)c5c4C(F)(F)[C@@H]4C[C@H]54)nc4nc(C5CCC(F)(F)CC5)cc(NCCN5CCOCC5)c4c3=O)c21 (atropisomer, axis not shown; (P)) [Example 430, N-[(1S)-1-[(3P)-3-[4-chloro-3-methanesulfonamido-1-(3-methoxypropyl)-1H-indazol-7-yl]-7-(4,4-difluorocyclohexyl)-5-{[2-(morpholin-4-yl)ethyl]amino}-4-oxo-3H,4H-pyrido[2,3-d]pyrimidin-2-yl]-2-(3,5-difluorophenyl)ethyl]-2-[(2S,4R)-9-(difluoromethyl)-5,5-difluoro-7,8-diazatricyclo[4.3.0.0^2,^4]nona-1(6),8-dien-7-yl]acetamide]	11 pM		> 20000 pM
COCCCn1nc(NS(C)(=O)=O)c2c(Cl)ccc(-n3c([C@H](Cc4cc(F)cc(F)c4)NC(=O)Cn4nc(C(F)F)c5c4C(F)(F)[C@@H]4C[C@H]54)nc4nc(C5CCC(F)(F)CC5)cc(NCC5CCOCC5)c4c3=O)c21 (atropisomer, axis not shown; (P)) [Example 431, N-[(1S)-1-[(3P)-3-[4-chloro-3-methanesulfonamido-1-(3-methoxypropyl)-1H-indazol-7-yl]-7-(4,4-difluorocyclohexyl)-5-{[(oxan-4-yl)methyl]amino}-4-oxo-3H,4H-pyrido[2,3-d]pyrimidin-2-yl]-2-(3,5-difluorophenyl)ethyl]-2-[(2S,4R)-9-(difluoromethyl)-5,5-difluoro-7,8-diazatricyclo[4.3.0.0^2,^4]nona-1(6),8-dien-7-yl]acetamide]	10 pM		> 20000 pM
COCCCn1nc(NS(C)(=O)=O)c2c(Cl)ccc(-n3c([C@H](Cc4cc(F)cc(F)c4)NC(=O)Cn4nc(C(F)F)c5c4C(F)(F)[C@@H]4C[C@H]54)nc4nc(C5CCC(F)(F)CC5)cc(NCCNC(C)=O)c4c3=O)c21 (atropisomer, axis not shown; (P)) [Example 432, N-[(1S)-1-[(3P)-3-[4-chloro-3-methanesulfonamido-1-(3-methoxypropyl)-1H-indazol-7-yl]-7-(4,4-difluorocyclohexyl)-5-[(2-acetamidoethyl)amino]-4-oxo-3H,4H-pyrido[2,3-d]pyrimidin-2-yl]-2-(3,5-difluorophenyl)ethyl]-2-[(2S,4R)-9-(difluoromethyl)-5,5-difluoro-7,8-diazatricyclo[4.3.0.0^2,^4]nona-1(6),8-dien-7-yl]acetamide]	182 pM		> 20000 pM
COCCCn1nc(NS(C)(=O)=O)c2c(Cl)ccc(-n3c([C@H](Cc4cc(F)cc(F)c4)NC(=O)Cn4nc(C(F)F)c5c4C(F)(F)[C@@H]4C[C@H]54)nc4nc(C5CCC(F)(F)CC5)cc(NCCC#N)c4c3=O)c21 (atropisomer, axis not shown; (P)) [Example 433, N-[(1S)-1-[(3P)-3-[4-chloro-3-methanesulfonamido-1-(3-methoxypropyl)-1H-indazol-7-yl]-5-[(2-cyanoethyl)amino]-7-(4,4-difluorocyclohexyl)-4-oxo-3H,4H-pyrido[2,3-d]pyrimidin-2-yl]-2-(3,5-difluorophenyl)ethyl]-2-[(2S,4R)-9-(difluoromethyl)-5,5-difluoro-7,8-diazatricyclo[4.3.0.0^2,^4]nona-1(6),8-dien-7-yl]acetamide]	37 pM		> 20000 pM
